Common to all, as to format: nucleic-acid assay
The subject of assay [1] is Nucleic Acid. Nature of the assay: Stabilization of 5'-AGAGAGAAAGAAAAA-3' ssDNA sequence assessed as melting temperature at pH7 using 100 mM NaCl.
Assay [2] has as its system Nucleic Acid. Nature of the assay: Stabilization of 5'-AGAGAGAGAGAAAAA-3' ssDNA sequence assessed as melting temperature at pH7 using 100 mM NaCl.
The subject of assay [3] is Nucleic Acid. Nature of the assay: Stabilization of 5'-AGAGAGATAGAAAAA-3' ssDNA sequence assessed as melting temperature at pH7 using 100 mM NaCl.
Assay [4] deals with Nucleic Acid. Nature of the assay: Stabilization of 5'-AGAGAGACAGAAAAA-3' ssDNA sequence assessed as melting temperature at pH7 using 100 mM NaCl.

On to `Cc1cn([C@H]2C[C@H](OP(=O)(O)OC[C@H]3O[C@@H](n4cc(C)c(=O)[nH]c4=O)C[C@@H]3OP(=O)(O)OC[C@H]3O[C@@H](n4cc(C)c(N)nc4=O)C[C@@H]3OP(=O)(O)OC[C@H]3O[C@@H](n4cc(C)c(=O)[nH]c4=O)C[C@@H]3OP(=O)(O)OC[C@H]3O[C@@H](n4cc(C)c(N)nc4=O)C[C@@H]3OP(=O)(O)OC[C@H]3O[C@@H](n4cc(C)c(=O)[nH]c4=O)C[C@@H]3O)[C@@H](COP(=O)(O)O[C@H]3C[C@H](n4cc(C)c(=O)[nH]c4=O)O[C@@H]3COP(=O)(O)O[C@H]3C[C@H](c4cn(C56CC7CC(CC(C7)C5)C6)nn4)O[C@@H]3COP(=O)(O)O[C@H]3C[C@H](n4cc(C)c(=O)[nH]c4=O)O[C@@H]3COP(=O)(O)O[C@H]3C[C@H](n4cc(C)c(N)nc4=O)O[C@@H]3COP(=O)(O)O[C@H]3C[C@H](n4cc(C)c(=O)[nH]c4=O)O[C@@H]3COP(=O)(O)O[C@H]3C[C@H](n4cc(C)c(=O)[nH]c4=O)O[C@@H]3COP(=O)(O)O[C@H]3C[C@H](n4cc(C)c(=O)[nH]c4=O)O[C@@H]3COP(=O)(O)O[C@H]3C[C@H](n4cc(C)c(=O)[nH]c4=O)O[C@@H]3COP(=O)(O)O[C@H]3C[C@H](n4cc(C)c(=O)[nH]c4=O)O[C@@H]3CO)O2)c(=O)nc1N`, for which the Tm in assay [1] worked out at 30 °C; in assay [2] it was 37 °C; in assay [3], 34 °C; in assay [4] it was 34 °C.
As to `Cc1cn([C@H]2C[C@H](OP(=O)(O)OC[C@H]3O[C@@H](n4cc(C)c(=O)[nH]c4=O)C[C@@H]3OP(=O)(O)OC[C@H]3O[C@@H](n4cc(C)c(N)nc4=O)C[C@@H]3OP(=O)(O)OC[C@H]3O[C@@H](n4cc(C)c(=O)[nH]c4=O)C[C@@H]3OP(=O)(O)OC[C@H]3O[C@@H](n4cc(C)c(N)nc4=O)C[C@@H]3OP(=O)(O)OC[C@H]3O[C@@H](n4cc(C)c(=O)[nH]c4=O)C[C@@H]3O)[C@@H](COP(=O)(O)O[C@H]3C[C@H](n4cc(C)c(=O)[nH]c4=O)O[C@@H]3COP(=O)(O)O[C@H]3C[C@H](c4cn(Cc5ccccc5)nn4)O[C@@H]3COP(=O)(O)O[C@H]3C[C@H](n4cc(C)c(=O)[nH]c4=O)O[C@@H]3COP(=O)(O)O[C@H]3C[C@H](n4cc(C)c(N)nc4=O)O[C@@H]3COP(=O)(O)O[C@H]3C[C@H](n4cc(C)c(=O)[nH]c4=O)O[C@@H]3COP(=O)(O)O[C@H]3C[C@H](n4cc(C)c(=O)[nH]c4=O)O[C@@H]3COP(=O)(O)O[C@H]3C[C@H](n4cc(C)c(=O)[nH]c4=O)O[C@@H]3COP(=O)(O)O[C@H]3C[C@H](n4cc(C)c(=O)[nH]c4=O)O[C@@H]3COP(=O)(O)O[C@H]3C[C@H](n4cc(C)c(=O)[nH]c4=O)O[C@@H]3CO)O2)c(=O)nc1N`, the Tm in assay [1] amounted to 32 °C; in assay [2], 38 °C; in assay [3], 33 °C; in assay [4], 34 °C.
The like results for `Cc1cn([C@H]2C[C@H](OP(=O)(O)OC[C@H]3O[C@@H](n4cc(C)c(=O)[nH]c4=O)C[C@@H]3OP(=O)(O)OC[C@H]3O[C@@H](n4cc(C)c(N)nc4=O)C[C@@H]3OP(=O)(O)OC[C@H]3O[C@@H](n4cc(C)c(=O)[nH]c4=O)C[C@@H]3OP(=O)(O)OC[C@H]3O[C@@H](n4cc(C)c(N)nc4=O)C[C@@H]3OP(=O)(O)OC[C@H]3O[C@@H](n4cc(C)c(=O)[nH]c4=O)C[C@@H]3O)[C@@H](COP(=O)(O)O[C@H]3C[C@H](n4cc(C)c(=O)[nH]c4=O)O[C@@H]3COP(=O)(O)O[C@H]3C[C@H](c4cn(CSc5ccccc5)nn4)O[C@@H]3COP(=O)(O)O[C@H]3C[C@H](n4cc(C)c(=O)[nH]c4=O)O[C@@H]3COP(=O)(O)O[C@H]3C[C@H](n4cc(C)c(N)nc4=O)O[C@@H]3COP(=O)(O)O[C@H]3C[C@H](n4cc(C)c(=O)[nH]c4=O)O[C@@H]3COP(=O)(O)O[C@H]3C[C@H](n4cc(C)c(=O)[nH]c4=O)O[C@@H]3COP(=O)(O)O[C@H]3C[C@H](n4cc(C)c(=O)[nH]c4=O)O[C@@H]3COP(=O)(O)O[C@H]3C[C@H](n4cc(C)c(=O)[nH]c4=O)O[C@@H]3COP(=O)(O)O[C@H]3C[C@H](n4cc(C)c(=O)[nH]c4=O)O[C@@H]3CO)O2)c(=O)nc1N` were, in that order, 37 °C, 40 °C, 40 °C and 38 °C.
For `Cc1cn([C@H]2C[C@H](OP(=O)(O)OC[C@H]3O[C@@H](n4cc(C)c(=O)[nH]c4=O)C[C@@H]3OP(=O)(O)OC[C@H]3O[C@@H](n4cc(C)c(N)nc4=O)C[C@@H]3OP(=O)(O)OC[C@H]3O[C@@H](n4cc(C)c(=O)[nH]c4=O)C[C@@H]3OP(=O)(O)OC[C@H]3O[C@@H](n4cc(C)c(N)nc4=O)C[C@@H]3OP(=O)(O)OC[C@H]3O[C@@H](n4cc(C)c(=O)[nH]c4=O)C[C@@H]3O)[C@@H](COP(=O)(O)O[C@H]3C[C@H](n4cc(C)c(=O)[nH]c4=O)O[C@@H]3COP(=O)(O)O[C@H]3C[C@H](c4cn(C5CCCCC5)nn4)O[C@@H]3COP(=O)(O)O[C@H]3C[C@H](n4cc(C)c(=O)[nH]c4=O)O[C@@H]3COP(=O)(O)O[C@H]3C[C@H](n4cc(C)c(N)nc4=O)O[C@@H]3COP(=O)(O)O[C@H]3C[C@H](n4cc(C)c(=O)[nH]c4=O)O[C@@H]3COP(=O)(O)O[C@H]3C[C@H](n4cc(C)c(=O)[nH]c4=O)O[C@@H]3COP(=O)(O)O[C@H]3C[C@H](n4cc(C)c(=O)[nH]c4=O)O[C@@H]3COP(=O)(O)O[C@H]3C[C@H](n4cc(C)c(=O)[nH]c4=O)O[C@@H]3COP(=O)(O)O[C@H]3C[C@H](n4cc(C)c(=O)[nH]c4=O)O[C@@H]3CO)O2)c(=O)nc1N`, in that order: 34 °C, 37 °C, 33 °C and 34 °C.

For the origin of these results see ChEMBL document CHEMBL1795250, “Synthesis and base-pairing properties of C-nucleotides having 1-substituted 1H-1,2,3-triazoles” (Bioorg Med Chem Lett, 2009).
